Test results from patent US12448369B2 (Edgewise Therapeutics, Inc., priority 2023, dated 2025).
Like-named read-outs stand apart in the source and are kept apart here.

Experiments:
[1] = system: Porcine atria myofibrils (atrial myosin ATPase); test: Myofibril ATPase assay, porcine atria myofibrils; assay type: biochemical; settings: porcine atria myofibrils
In short: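 Atrial myofibril ATPase measured by NADH-coupled absorbance at 340 nm; vehicle-normalized slopes fitted to give Y75 or Y125 values.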

[2] = target: T1, Porcine ventricle myofibrils (ventricular myosin ATPase) (Sus scrofa, UniProt P79293); test: Myofibril ATPase assay, porcine ventricle myofibrils; assay type: biochemical, porcine (Yucatan minipigs); settings: porcine ventricle myofibrils
T1 construct: Myofibrils from porcine cardiac muscle was isolated from the left ventricle of Yucatan minipigs; tissue Exemplar Genetics; host or cells: left ventricle of Yucatan minipigs, myofibrils prepared in house
T1 sequence (P79293 whole entry): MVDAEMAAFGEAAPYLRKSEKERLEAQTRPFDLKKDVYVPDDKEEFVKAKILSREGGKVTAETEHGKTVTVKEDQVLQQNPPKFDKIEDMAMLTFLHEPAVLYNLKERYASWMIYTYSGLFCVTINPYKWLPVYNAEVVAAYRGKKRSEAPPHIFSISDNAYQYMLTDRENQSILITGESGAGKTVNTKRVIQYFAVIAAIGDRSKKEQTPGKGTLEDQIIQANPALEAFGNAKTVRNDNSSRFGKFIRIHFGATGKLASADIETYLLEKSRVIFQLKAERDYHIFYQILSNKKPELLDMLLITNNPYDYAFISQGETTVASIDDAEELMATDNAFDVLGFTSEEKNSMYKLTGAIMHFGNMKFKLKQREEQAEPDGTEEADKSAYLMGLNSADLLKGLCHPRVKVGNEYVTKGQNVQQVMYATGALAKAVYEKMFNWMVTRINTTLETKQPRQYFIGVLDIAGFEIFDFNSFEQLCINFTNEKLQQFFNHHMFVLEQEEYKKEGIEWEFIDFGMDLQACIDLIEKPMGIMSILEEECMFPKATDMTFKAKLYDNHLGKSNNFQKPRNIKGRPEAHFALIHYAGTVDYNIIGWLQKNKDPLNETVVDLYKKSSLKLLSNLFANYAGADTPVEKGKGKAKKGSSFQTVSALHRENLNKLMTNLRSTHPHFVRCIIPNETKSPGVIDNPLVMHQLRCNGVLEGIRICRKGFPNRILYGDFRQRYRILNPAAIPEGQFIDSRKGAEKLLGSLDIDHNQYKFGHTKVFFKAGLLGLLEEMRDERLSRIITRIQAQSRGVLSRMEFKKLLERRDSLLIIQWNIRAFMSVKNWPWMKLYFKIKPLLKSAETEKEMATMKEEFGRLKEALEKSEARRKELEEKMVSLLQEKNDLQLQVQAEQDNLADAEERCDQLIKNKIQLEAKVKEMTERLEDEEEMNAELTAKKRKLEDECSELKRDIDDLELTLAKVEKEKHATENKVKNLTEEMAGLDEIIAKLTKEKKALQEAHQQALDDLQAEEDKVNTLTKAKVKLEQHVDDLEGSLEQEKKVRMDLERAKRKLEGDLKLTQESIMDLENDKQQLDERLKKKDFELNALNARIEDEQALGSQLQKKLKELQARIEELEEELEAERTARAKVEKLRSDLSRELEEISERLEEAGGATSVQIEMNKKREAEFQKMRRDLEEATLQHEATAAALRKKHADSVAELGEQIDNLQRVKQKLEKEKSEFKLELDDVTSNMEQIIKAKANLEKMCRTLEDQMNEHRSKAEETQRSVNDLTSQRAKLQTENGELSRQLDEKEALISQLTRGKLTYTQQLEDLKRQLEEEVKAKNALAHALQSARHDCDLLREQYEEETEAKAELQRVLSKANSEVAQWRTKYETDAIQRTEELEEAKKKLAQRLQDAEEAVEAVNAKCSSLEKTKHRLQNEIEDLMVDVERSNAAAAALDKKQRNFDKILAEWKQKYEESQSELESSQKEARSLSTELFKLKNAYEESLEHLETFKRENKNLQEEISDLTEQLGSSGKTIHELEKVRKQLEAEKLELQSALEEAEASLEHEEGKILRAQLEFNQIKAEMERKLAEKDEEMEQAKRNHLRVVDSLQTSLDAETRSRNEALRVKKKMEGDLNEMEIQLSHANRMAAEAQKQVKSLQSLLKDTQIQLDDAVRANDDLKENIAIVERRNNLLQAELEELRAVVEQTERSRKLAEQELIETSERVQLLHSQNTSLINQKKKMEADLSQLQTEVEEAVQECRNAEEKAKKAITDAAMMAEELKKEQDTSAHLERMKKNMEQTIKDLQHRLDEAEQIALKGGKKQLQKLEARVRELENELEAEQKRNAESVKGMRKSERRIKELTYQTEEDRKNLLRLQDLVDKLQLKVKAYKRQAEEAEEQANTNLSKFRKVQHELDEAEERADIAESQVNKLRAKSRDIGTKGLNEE
In short: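 ATPase activity of porcine left-ventricle myofibrils (Yucatan minipig) was followed through PK-LDH coupling as NADH loss at 340 nm, read every 1.5-2 min for 75 min. Slopes were normalised to vehicle wells and fitted to a 4-parameter logistic model. Values are Y75, the concentration giving a 25% drop in activity, or Y125 for activators.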

SD rats = test: Echocardiography of systolic cardiac performance (HR, FS, LV volumes, SWT) after a single oral dose; assay type: in vivo; settings: Rattus norvegicus, single dose 10 mg/kg PO, ~2 hrs post-dosing, isoflurane-anesthetized
Method: Example 2. Echocardiogram Data
Experiments were performed to evaluate the in vivo ability of the compounds of the disclosure to modulate systolic cardiac performance. Non-invasively echocardiography was used to assess cardiac indicators in isoflurane-anesthetized SD rats. A set of conscious rats were treated with either vehicle control (0 mg/kg PO; n=78) or a single dose of a test compound (10 mg/kg PO, n=2 to 6/compound) via oral gavage. Cardiac function/geometry were recorded at two separate time-points/days: once prior to dosing (e.g., at baseline, day −2) and at ˜2 hrs post-dosing (day 0). In these experiments, heart rate (HR), echocardiography-derived indices of left-ventricular systolic performance, as well as dimensions/volumes were measured using a high-frequency transducer and parasternal long-axis transthoracic views (Vevo3100, VisualSonic). LV fractional shortening (FS), an index of systolic function, was defined as the end-diastole normalized change in internal dimensions divided by the difference in diameter (LVid) of the left ventricle between end-systole (LVids) and end-diastole (LVidd) (e.g., FS=100·[LVidd−LVids]/LVidd). LV volumes were derived using the Teichholz formula (LVV=[7·LVid^3]/[2.4+LVid]). In addition, a systolic wall-thickening index (SWT) was also evaluated. SWT is defined as the relative ratio (end-diastole normalized) of left-ventricular (anterior and posterior) wall-thickness change during systole; e.g., SWT={[(anterior LV wall thickness in systole−anterior LV wall thickness in diastole)]+[(posterior LV wall thickness in systole−posterior LV wall thickness in diastole)]}/{2*diastolic thickness}. In all cases, blood samples were taken (via either tail-vein micro-sampling or cardiac-puncture) at the time of each echocardiographic examination in order to establish pharmacokinetic (PK)/pharmacodynamics (PD) relationships.

[3] = system: Rabbit Psoas myofibrils (skeletal myosin ATPase); test: Myofibril ATPase assay, rabbit psoas (skeletal) myofibrils; assay type: biochemical; settings: rabbit psoas myofibrils
In short: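 Values derive from concentration–response fits of NADH consumption rates at 340 nm, normalized to vehicle-only wells, as Y75 or Y125. Myofibril ATP turnover was linked to NADH via PK/LDH in Ca/EGTA-buffered PIPES, pH 7.0, and read over 75 min.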

[4] = EDV change vs vehicle, read-out: EDV % vs. VEH
[5] = LV fractional shortening change vs vehicle, read-out: FS % vs. VEH
[6] = SWT change vs vehicle, read-out: SWT % vs. VEH
[7] = heart rate change vs vehicle, read-out: HR % vs. VEH

## C[C@@H](NC(=O)Cc1cc2c(F)c(F)ccc2[nH]c1=O)c1ncc(C#N)cn1 (single isomer, unassigned) [compound 2071]
[1]; Y75 value (no ‡ mark)
  Atrial EC25: 1070 nM
[2]; Y75 value (no ‡ mark)
  Ventricular EC25: 2620 nM
SD rats; [4]
  change in vivo at 10 mg/kg: 1 to 20%
SD rats; [5]
  change in vivo at 10 mg/kg: 1 to 20%
SD rats; [6]
  change in vivo at 10 mg/kg: 11 to 20%
SD rats; [7]
  change in vivo at 10 mg/kg: 1 to 20%
[3]; Y75 value (no ‡ mark)
  Skeletal EC25: 2930 nM

## Cc1c(CC(=O)N[C@H](C)c2ncc(C#N)cc2F)c(=O)[nH]c2ccc(F)cc12 [compound 1106]
[1]; Y75 value (no ‡ mark)
  Atrial EC25: 540 nM
[2]; Y75 value (no ‡ mark)
  Ventricular EC25: 490 nM
SD rats; [4]
  change in vivo at 10 mg/kg: 1 to 10%
SD rats; [5]
  change in vivo at 10 mg/kg: 21 to 40%
SD rats; [6]
  change in vivo at 10 mg/kg: 21 to 40%
SD rats; [7]
  change in vivo at 10 mg/kg: 1 to 10%
[3]; Y75 value (no ‡ mark)
  Skeletal EC25: 370 nM

## Cc1c(CC(=O)N[C@H](C)c2ncc(C#N)cc2F)c(=O)[nH]c2ccc(F)c(F)c12 [compound 41]
[1]; Y75 value (no ‡ mark)
  Atrial EC25: 130 nM
[2]; Y75 value (no ‡ mark)
  Ventricular EC25: 450 nM
SD rats; [4]
  change in vivo at 10 mg/kg: 1 to 20%
SD rats; [5]
  change in vivo at 10 mg/kg: 1 to 20%
SD rats; [6]
  change in vivo at 10 mg/kg: ≥ 21%
SD rats; [7]
  change in vivo at 10 mg/kg: 1 to 20%
[3]; Y75 value (no ‡ mark)
  Skeletal EC25: 70 nM

## Cc1c(CC(=O)N[C@@H](C)c2cnc(C#N)cn2)c(=O)[nH]c2ccc(F)c(F)c12 [compound 1146, (S)—N-(1-(5-cyanopyrazin-2-yl)ethyl)-2-(5,6-difluoro-4-methyl-2-oxo-1,2-dihydroquinolin-3-yl)acetamide]
[1]; Y75 value (no ‡ mark)
  Atrial EC25: 140 nM
[2]; Y75 value (no ‡ mark)
  Ventricular EC25: 190 nM
SD rats; [4]
  change in vivo at 10 mg/kg: 1 to 20%
SD rats; [5]
  change in vivo at 10 mg/kg: 21 to 40%
SD rats; [6]
  change in vivo at 10 mg/kg: 21 to 40%
SD rats; [7]
  change in vivo at 10 mg/kg: 1 to 10%
[3]; Y75 value (no ‡ mark)
  Skeletal EC25: 210 nM

## Cc1c(CC(=O)N[C@@H](C)c2ncc(C#N)cc2F)c(=O)[nH]c2ccc(F)c(F)c12 [compound 42]
[1]; Y75 value (no ‡ mark)
  Atrial EC25: 80 nM
[2]; Y75 value (no ‡ mark)
  Ventricular EC25: 40 nM
SD rats; [4]
  change in vivo at 10 mg/kg: 1 to 10%
SD rats; [5]
  change in vivo at 10 mg/kg: 21 to 40%
SD rats; [6]
  change in vivo at 10 mg/kg: ≥ 21%
SD rats; [7]
  change in vivo at 10 mg/kg: 0%
[3]; Y75 value (no ‡ mark)
  Skeletal EC25: 10 nM

## Cc1nccc2[nH]c(=O)c(CC(=O)N[C@@H](C)c3ccc(C#N)cc3F)c(C)c12 (single isomer, unassigned) [compound 256]
[1]; Y75 value (75% activity relative to no compound)
  Atrial EC25: 80 nM
[2]; Y75 value
  Ventricular EC25: 190 nM
SD rats; [4]
  change in vivo at 10 mg/kg: 1 to 20%
SD rats; [5]
  change in vivo at 10 mg/kg: 1 to 20%
SD rats; [6]
  change in vivo at 10 mg/kg: 1 to 20%
SD rats; [7]
  change in vivo at 10 mg/kg: 1 to 10%
[3]; Y75 value
  Skeletal EC25: 20 nM
